# Experimental data from PubChem BioAssay AID2060503 (Molecular Pharmacology Branch, DTP, NCI, 2025).
# System: 817829-284-R-J1-PDC complex spheroids, viability
# Experiment: Anticancer human tumor 817829-284-R-J1-PDC patient-derived colon adenocarcinoma cell line growth inhibition [GQUAD]
# Conditions: for IC50: curve of first compound; for viability, T/C: stronger effect = lower value
# Outline: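 Viability of tumor cells grown as complex spheroids with endothelial and stromal cells, exposed to drug combinations. Top concentration at or near clinical Cmax (else 10 microM), diluted in half-log increments.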
# [1] = second compound 0.0316 µM, first compound 0.000999 µM
# [2] = second compound 0.0316 µM, first compound 0.00316 µM
# [3] = second compound 0.0316 µM, first compound 0.00999 µM
# [4] = second compound 0.0316 µM, first compound 0.0316 µM
# [5] = second compound 0.0316 µM, first compound 0.0999 µM
# [6] = second compound 0.0316 µM, first compound 0.316 µM
# [7] = second compound 0.1 µM, first compound 0.000999 µM
# [8] = second compound 0.1 µM, first compound 0.00316 µM
# [9] = second compound 0.1 µM, first compound 0.00999 µM
# [10] = second compound 0.1 µM, first compound 0.0316 µM
# [11] = second compound 0.1 µM, first compound 0.0999 µM
# [12] = second compound 0.1 µM, first compound 0.316 µM
# [13] = second compound 0.316 µM, first compound 0.000999 µM
# [14] = second compound 0.316 µM, first compound 0.00316 µM
# [15] = second compound 0.316 µM, first compound 0.00999 µM
# [16] = second compound 0.316 µM, first compound 0.0316 µM
# [17] = second compound 0.316 µM, first compound 0.0999 µM
# [18] = second compound 0.316 µM, first compound 0.316 µM
# [19] = second compound 1 µM, first compound 0.000999 µM
# [20] = second compound 1 µM, first compound 0.00316 µM
# [21] = second compound 1 µM, first compound 0.00999 µM
# [22] = second compound 1 µM, first compound 0.0316 µM
# [23] = second compound 1 µM, first compound 0.0999 µM
# [24] = second compound 1 µM, first compound 0.316 µM
# [25] = second compound 3.16 µM, first compound 0.000999 µM
# [26] = second compound 3.16 µM, first compound 0.00316 µM
# [27] = second compound 3.16 µM, first compound 0.00999 µM
# [28] = second compound 3.16 µM, first compound 0.0316 µM
# [29] = second compound 3.16 µM, first compound 0.0999 µM
# [30] = second compound 3.16 µM, first compound 0.316 µM
# [31] = second compound 10 µM, first compound 0.000999 µM
# [32] = second compound 10 µM, first compound 0.00316 µM
# [33] = second compound 10 µM, first compound 0.00999 µM
# [34] = second compound 10 µM, first compound 0.0316 µM
# [35] = second compound 10 µM, first compound 0.0999 µM
# [36] = second compound 10 µM, first compound 0.316 µM
# 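Note: spheroids exposed to agents for 7 days before readout.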
# 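Throughout, for viability, T/C: percent viability relative to DMSO vehicle control taken as 100%.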
compound,measurement,setting,value
CCc1c2c(nc3ccc(O)cc13)-c1cc3c(c(=O)n1C2)COC(=O)[C@]3(O)CC + Cc1cnc(CNC(=O)c2c(=O)c3ccc(N4CCCN(C)CC4)nc3n3c2sc2ccccc23)cn1,IC50,second compound 0.0316 µM,< 0.999 nM
same,IC50,second compound 0.1 µM,< 0.999 nM
same,IC50,second compound 0.316 µM,< 0.999 nM
same,IC50,second compound 1 µM,< 0.999 nM
same,IC50,second compound 3.16 µM,< 0.999 nM
same,IC50,second compound 10 µM,< 0.999 nM
same,"viability, T/C",[1],40.3%
same,"viability, T/C",[2],25.9%
same,"viability, T/C",[3],28.9%
same,"viability, T/C",[4],14.1%
same,"viability, T/C",[5],8.12%
same,"viability, T/C",[6],3.77%
same,"viability, T/C",[7],33.5%
same,"viability, T/C",[8],29.6%
same,"viability, T/C",[9],18.2%
same,"viability, T/C",[10],15.5%
same,"viability, T/C",[11],6.99%
same,"viability, T/C",[12],2.92%
same,"viability, T/C",[13],21.6%
same,"viability, T/C",[14],27.2%
same,"viability, T/C",[15],22%
same,"viability, T/C",[16],14.4%
same,"viability, T/C",[17],7.47%
same,"viability, T/C",[18],2.52%
same,"viability, T/C",[19],19.5%
same,"viability, T/C",[20],25.2%
same,"viability, T/C",[21],17.8%
same,"viability, T/C",[22],13.5%
same,"viability, T/C",[23],6.88%
same,"viability, T/C",[24],0.52%
same,"viability, T/C",[25],20.3%
same,"viability, T/C",[26],17.8%
same,"viability, T/C",[27],15.5%
same,"viability, T/C",[28],10.7%
same,"viability, T/C",[29],3.99%
same,"viability, T/C",[30],0.15%
same,"viability, T/C",[31],0.09%
same,"viability, T/C",[32],0.14%
same,"viability, T/C",[33],0.17%
same,"viability, T/C",[34],0.14%
same,"viability, T/C",[35],0.16%
same,"viability, T/C",[36],0.16%
CCc1c2c(nc3ccc(O)cc13)-c1cc3c(c(=O)n1C2)COC(=O)[C@]3(O)CC + Cc1[nH]c2ccc(F)cc2c1-c1nc2c3cccnc3c3ncccc3c2[nH]1,IC50,second compound 0.0316 µM,1.74 nM
same,IC50,second compound 0.1 µM,1.01 nM
same,IC50,second compound 0.316 µM,< 0.999 nM
same,IC50,second compound 1 µM,< 0.999 nM
same,IC50,second compound 3.16 µM,< 0.999 nM
same,IC50,second compound 10 µM,< 0.999 nM
same,"viability, T/C",[1],65.2%
same,"viability, T/C",[2],28.1%
same,"viability, T/C",[3],30.3%
same,"viability, T/C",[4],13.1%
same,"viability, T/C",[5],8.01%
same,"viability, T/C",[6],4.19%
same,"viability, T/C",[7],51.3%
same,"viability, T/C",[8],33.6%
same,"viability, T/C",[9],27.8%
same,"viability, T/C",[10],14.9%
same,"viability, T/C",[11],9.56%
same,"viability, T/C",[12],4.38%
same,"viability, T/C",[13],43.5%
same,"viability, T/C",[14],35.6%
same,"viability, T/C",[15],23.6%
same,"viability, T/C",[16],16.7%
same,"viability, T/C",[17],8.62%
same,"viability, T/C",[18],5.24%
same,"viability, T/C",[19],43%
same,"viability, T/C",[20],30.6%
same,"viability, T/C",[21],24.6%
same,"viability, T/C",[22],15%
same,"viability, T/C",[23],8.8%
same,"viability, T/C",[24],4.41%
same,"viability, T/C",[25],30.3%
same,"viability, T/C",[26],16.4%
same,"viability, T/C",[27],13.8%
same,"viability, T/C",[28],10.8%
same,"viability, T/C",[29],5.28%
same,"viability, T/C",[30],2.61%
same,"viability, T/C",[31],6.96%
same,"viability, T/C",[32],7.65%
same,"viability, T/C",[33],4.74%
same,"viability, T/C",[34],5.66%
same,"viability, T/C",[35],3.66%
same,"viability, T/C",[36],1.35%
